According to patent US4623715A, “Novel peptides which are active on the central nervous system and have an action on the cholinergic system” (Hoechst Aktiengeselleschaft, priority 1984, dated 1986):

Tests used:
[1] = tested on: cholinergic system (striatum of rats); test: Biochemical effects in the striatum (acetylcholine and choline content) after s.c. administration; action on the cholinergic system; type: in vivo; settings: for Biochemical effects in the striatum: ACH (acetylcholine) / Biochemical effects in the striatum: CH (choline): s.c., at the dose printed in the same line (E2), arrow up/down = content increased/reduced; for Biochemical effects in the striatum: Dose mcg/kg s.c.; (rats): s.c. dose in rats at which the ACH/CH effects of the same line are reported
Protocol: At the same time, cholinergic mechanisms in the central nervous system (CNS) are influenced. In the striatum of rats, the choline content is reduced and the acetylcholine content is increased following subcutaneous administration of 10 μg.
The action of the compounds according to the invention on the cholinergic system is determined by a method described in J. Neurochem. 20 (1973), pages 1-8.

[2] = tested on: cholinergic system (striatum of rats); test: as above; type: in vivo; settings: s.c. administration of 1 μg
[3] = tested on: rats; test: Behavior (grooming, yawning, stretching; urge to groom and move) after i.c.v. administration; type: in vivo; settings: i.c.v. administration of 10 μg
[4] = tested on: acetylcholine conversion in various areas of the brain; settings: intracerebroventricular (i.c.v.) administration; cited from earlier work
[5] = rats, subcutaneous administration of 10 μg

For “Z--D--Lys--Phe--NH--(CH2)8 --NH2.2HCl [V]”, the “Biochemical effects in the striatum: ACH (acetylcholine)” value ([1]; rats) was “.uparw”, the “Biochemical effects in the striatum: CH (choline)” value ([1]; rats) was “.dwnarw” and the “Biochemical effects in the striatum: Dose mcg/kg s.c.; (rats)” value [1] was 1.0 µg/kg. For the same compound, the “acetylcholine content in the striatum” value ([2]; same actions as IV at 10 μg (increased)) was “the same actions” and the “choline content in the striatum” value ([2]; same actions as IV at 10 μg (reduced)) was “the same actions”.

With `COC(=O)[C@H](Cc1ccccc1)NC(=O)[C@H](CCCCN)NC(=O)OCc1ccccc1` [IV, Z--Lys--Phe--OMe] the “urge to groom and move” value [3] was “cause the urge to groom and move”, the “acetylcholine content in the striatum” value [1, 5] was “increased” and the “choline content in the striatum” value [1, 5] was “reduced”.

In the case of ACTH--(1-24) [VI, reference compound], the “acetylcholine conversion in various areas of the brain” value [4] is given as “acceleration”, the “Biochemical effects in the striatum: ACH (acetylcholine)” value ([1]; rats) is given as “.dwnarw” and the “Biochemical effects in the striatum: CH (choline)” value ([1]; rats) is given as “.uparw”. The “Biochemical effects in the striatum: Dose mcg/kg s.c.; (rats)” value [1] was 0.01 to 1 µg/kg.

For “ACTH (SYSMEHFRWGKPVGKKRRPVKVYPNGAEDESAEAFPLEF; Corticotropin; UniProt P01189 138-176, looked up) [peptide hormone cited from the literature]”, the “acetylcholine conversion in various areas of the brain” value [4] is listed as “acceleration”.
